In patent US4894173A, “Divalent ion tolerant aromatic sulfonates” (The Standard Oil Company, priority 1988, dated 1990):
Values belong to the molecule of their own block, whether it stands above or below them.

Legend:
Format in all cases: physicochemical
[1] = Surface tension (lowering of the air/water surface tension), Table 2; conditions: 10 mEq/L, deionized water, 22° C.
Description: The surface activity - lowering of the air/water surface tension - of the
surfactants was also measured. Surface tensions were measured at a
surfactant concentration of 10 milliequivalents/L in deionized water at
22° C. or a Fisher Autotensiomat (de Nouy ring) apparatus. At this
concentration, all the surfactants should be above their critical micell
^f Of a 10 mEq/L solution of surfactant at 22° C.

[2] = Calcium-ion tolerance (calcium precipitation) test; conditions: for Calcium Precipitation (ppm CA^2+): 10 mEq/L surfactant titrated with 5 M CaCl2 until transmittance (600 nm) 80% of initial; for Calcium Precipitation (ppm CA^2+), lower concentration / Calcium Precipitation (ppm CA^2+), higher concentration: 10 mEq/L; for Calcium Precipitation (ppm CA^2+), lower concentration: one component apparently precipitates at the lower calcium ion concentration; for Calcium Precipitation (ppm CA^2+), higher concentration: remainder precipitates at the higher calcium concentration
Description: Calcium-ion tolerance tests were conducted to quantify the relative solubility of the surfactants in the presence of divalent ions (see Table 2). All of the surfactants of this invention tolerated calcium ion concentrations from 28 to 10,000 times higher than the comparative examples.
^e A 10 mEq/L solution of Surfactant was titrated with 5 M CaCl2
solution until the transmittance of the solution (600 nm) was reduced to
80% of the initial value.
^g One component apparently precipitates out at the lower calcium ion
concentration and the reminder at the higher calcium concentration.

[3] = 60° C. solubility in deionized (distilled) water and in seawater; set-up: key to 60° C. Solubility (@ mEq/L), H2O / 60° C. Solubility (@ mEq/L), Seawater: S: completely soluble; P: partially soluble; I: insoluble; T: turbid solution
Description: As mentioned above, surfactants for EOR must be compatible with divalent ion containing brines such as seawater. Solubility tests were carried out in both deionized water and in seawater. The surfactants of this invention (Examples 1-5) were all soluble in seawater. […] A commercial sulfonate (SDBS, Comparative Example 3) was insoluble in seawater. All surfactants were soluble in distilled water.
^ d S = completely soluble P = partially soluble I = insoluble T =

[4] = Divalent ion tolerance as stated in the description; conditions: divalent ion concentration tolerated / stable to
[5] = Surface tension by Du Nouy ring method at varied calcium ion concentration, Table 3
Description: (§1) Surface tensions (in dynes/cm) were measured using the Du Nouy ring method. The reported surface tensions are for 10 meq/L surfactant solutions: which is above the CMC (critical micelle concentration). The CMC's (in meq/L) were determined by examination of surface tension vs. surfactant concentration curves.

[6] = CMC (critical micelle concentration) from surface tension vs. surfactant concentration curves; conditions: calcium ion concentration 0
Description: as §1

[7] = Foam formation/stability, simple version of the Ross-Miles foam test; conditions: 10 meq/L
Description: Foam tests were conducted using a simple version of the Ross-Miles foam test. The initial (0 min) foam volume for SDBS was assigned a value of 100. All other foam volumes were related to this value.

[8] = Thermal stability at 90° C.; surfactant activity by two-phase titration; conditions: for Surfactant Activity (%): 90° C.; for appearance: aged at 90° C.
Description: Surfactant solutions were prepared in distilled water, 1.2M sodium hydroxide, and 1.2M hydrochloric acid. These solutions were aged at 90° C. Samples were withdrawn at regular interval and surfactant activity was determined by two-phase titration.

Surface Tension [1]: 23.4 Dyne/cm
60° C. Solubility (@ mEq/L), H2O ([3]; 24 mEq/L): S
solubility in seawater (in words) [3]: either insoluble or partially soluble
60° C. Solubility (@ mEq/L), Seawater ([3]; 25 mEq/L): I
Molecule: CCCCCCCCCCCCc1ccc(O)c(S(=O)(=O)O)c1 [Comparative Example 1]
Calcium Precipitation (ppm CA^2+) [2]: < 80 ppm

Surface Tension [1]: 24.9 Dyne/cm
60° C. Solubility (@ mEq/L), H2O ([3]; 30 mEq/L): S,T
solubility in seawater (in words) [3]: either insoluble or partially soluble
60° C. Solubility (@ mEq/L), Seawater ([3]; 28 mEq/L): P
Molecule: CCCCCCCCCc1ccc(O)c(S(=O)(=O)O)c1 [Comparative Example 2]
Calcium Precipitation (ppm CA^2+) [2]: 160 ppm

Surface Tension [1]: 25.1 Dyne/cm
60° C. Solubility (@ mEq/L), H2O ([3]; 18 mEq/L): S
Molecule: CCCCCCC(CO)CCC(C)c1ccc(S(=O)(=O)O)cc1 (stereo not shown) [Example 1]
Calcium Precipitation (ppm CA^2+) [2]: 2800 ppm

Surface Tension [1]: 25.6 Dyne/cm
60° C. Solubility (@ mEq/L), H2O ([3]; 35 mEq/L): S
60° C. Solubility (@ mEq/L), Seawater ([3]; 34 mEq/L): S
Molecule: CCCCCC(CO)CCC(C)c1ccc(S(=O)(=O)O)cc1 (stereo not shown) [Example 2]
Calcium Precipitation (ppm CA^2+), lower concentration [2]: 355 ppm
Calcium Precipitation (ppm CA^2+), higher concentration [2]: 20000 ppm

Surface Tension [1]: 26.4 Dyne/cm
60° C. Solubility (@ mEq/L), H2O ([3]; 18 mEq/L): S
60° C. Solubility (@ mEq/L), Seawater ([3]; 27 mEq/L): S
Molecule: CCCCCCCCC(CO)CCC(C)c1ccc(S(=O)(=O)O)cc1 (stereo not shown) [Example 3]
Calcium Precipitation (ppm CA^2+) [2]: 40K

Surface Tension [1]: 25.2 Dyne/cm
60° C. Solubility (@ mEq/L), H2O ([3]; 15 mEq/L): S
60° C. Solubility (@ mEq/L), Seawater ([3]; 26 mEq/L): S
Molecule: CCCCCCC(CO)Cc1ccc(S(=O)(=O)O)cc1 (stereo not shown) [Example 4]
Calcium Precipitation (ppm CA^2+), lower concentration [2]: 350 ppm
Calcium Precipitation (ppm CA^2+), higher concentration [2]: 57000 ppm

Surface Tension [1]: 29.3 Dyne/cm
60° C. Solubility (@ mEq/L), H2O ([3]; 15 mEq/L): S
60° C. Solubility (@ mEq/L), Seawater ([3]; 27 mEq/L): S
Molecule: CCCCCCCCC(CO)Cc1ccc(S(=O)(=O)O)cc1 (stereo not shown) [Example 5]
Calcium Precipitation (ppm CA^2+) [2]: 100K

Surface Tension [1]: 28.6 Dyne/cm
Surface Tension ([5]; 10 meq/L surfactant, calcium ion concentration 0): 29 dynes/cm
Surface Tension (observation in words) ([5]; calcium ion concentration 1000 PPM): surfactant precipitate
Surface Tension (observation in words) ([5]; calcium ion concentration 10,000 PPM): surfactant precipitate
CMC [6]: 1 meq/L
Foam Volume (relative to initial SDBS = 100) ([7]; 0 min): 100
Foam Volume (relative to initial SDBS = 100) ([7]; +5 min): 94
Foam Volume (relative to initial SDBS = 100) ([7]; +15 min): 83
Foam Volume (relative to initial SDBS = 100) ([7]; +30 min): 77
Foam Volume (relative to initial SDBS = 100) ([7]; +45 min): 71
Surfactant Activity (%) ([8]; 1.2 M HCl, 0 hr): 100%
Surfactant Activity (%) ([8]; 1.2 M HCl, 305 hr): 92%
Surfactant Activity (%) ([8]; 1.2 M HCl, 500 hr): 59%
Surfactant Activity (%) ([8]; 1.2 M HCl, 720 hr): 41%
appearance ([8]; 1.2 M HCl): ppt
Surfactant Activity (%) ([8]; 1.2 M NaOH, 0 hr): 1%
appearance ([8]; 1.2 M NaOH): ppt
Surfactant Activity (%) ([8]; distilled water, 0 hr): 100%
Surfactant Activity (%) ([8]; distilled water, 330 hr): 93%
Surfactant Activity (%) ([8]; distilled water, 525 hr): 93%
Surfactant Activity (%) ([8]; distilled water, 740 hr): 93%
appearance ([8]; distilled water): clear
60° C. Solubility (@ mEq/L), H2O ([3]; 27 mEq/L): S
solubility in seawater (in words) [3]: insoluble
60° C. Solubility (@ mEq/L), Seawater ([3]; 27 mEq/L): I
Molecule: sodium dodecylbenzenesulfonate [SDBS]
divalent ion tolerance [4]: 100 ppm
Calcium Precipitation (ppm CA^2+) [2]: 90 ppm
